{
  "source": "patent US11638424B2",
  "about": "“Mosquito attractant formulations and uses thereof” (priority 2017, dated 2023)",
  "key": {"[1]": {"tested_on": "A. gambiae sensu lato", "assay": "Persistency (landing, probing and initiating feeding) within 5 min on cell-free meals", "assay_type": "in vivo", "procedure": "Fifty mosquitoes were isolated in three separate cages (8 cm internal diameter×10 cm in height) covered with netting, and fed on 1 ml of control RBCs, hRBCs or giRBCs, respectively. […] For each group, the number of fully fed mosquitoes compared to unfed controls was immediately recorded. In another set of feeding experiments, serum or a 0.9% physiological saline solution (NaCl, pH 7.4), either with or without 10 μM HMBPP, were offered to mosquitoes during a 5 min feeding window, and the number of fed mosquitoes recorded every minute for each cage separately. In the saline experiment, an additional treatment of 10 μM IPP in NaCl was included."}, "[2]": {"tested_on": "RBCs", "assay": "Volatile collection (SPME) and GC-MS analysis of RBC headspace", "assay_type": "cell-based, Human", "conditions": "10 μM HMBPP, FIGS. 2C and D", "procedure": "RBCs (1 ml) were transferred to 4 ml glass vials closed with auto-sampler screw caps, and equilibrated in a thermostat at 38° C. for 15 min. Then, 2.5 μl of HMBPP or Nanopure water were added to the RBCs samples (final concentration: 10 μM HMBPP per sample). Volatiles were collected from the headspace using solid phase micro-extraction (SPME; Supelco, Bellmonte, Pa., USA) (M. J. Yang, el al., J. Chem. Educ., 74, 1130-1132 (1997) and A. K. Borg-Karlson and R. Mozuraitis, Naturforsch., C. 51, 599-602 (1996)). […] Electron ionisation mass spectra were determined at 70 eV with the ion source kept at 230° C. and mass spectra were obtained at mass to charge ratio (m/z) 29-400. […] A similar protocol was used for the quantification of CO2, with the mass spectral data and GC retention times being compared with emission from frozen CO2. The relative amounts of CO2 in arbitrary units were determined from the areas of the respective chromatogram peaks using single ion display mode at m/z 44±0.5 Da. The amounts of identified compounds were quantified by the use of extracted ion chromatograms, since they are very minute. […] The estimations were based on the very same quantifications given in ‘arbitrary area units’. […]"}},
  "data": [
    {"smiles": "C/C(=C\\COP(=O)(O)OP(=O)(O)O)CO", "note": "[HMBPP, (E)-4-hydroxy-3-methyl-but-2-enyl pyrophosphate]", "values": [
      {"measurement": "persistency / phagostimulatory effect in physiological salt solution", "setting": "[1]; 0.9% NaCl, 10 μM, 5 min, FIG. 1F", "result": "generated a similar effect"},
      {"measurement": "percent persistency within 5 min (females that landed and initiated probing and feeding)", "setting": "[1]; serum with 10 μM HMBPP (serum alone 20%), FIG. 1E", "result": "Approximately 80%"},
      {"measurement": "increase in aldehydes (C8-C10:al) in headspace of hRBCs compared to RBCs", "setting": "[2]", "result": "1.7-to-5.2 fold"},
      {"measurement": "increase in monoterpenes (α- and ß-pinene, limonene) in headspace of hRBCs compared to RBCs", "setting": "[2]", "result": "1.2-to-1.6 fold"}
    ]}
  ]
}
